Results on 9 molecules are retold here after US11198673B2, “Therapeutic compounds and compositions” (eXIthera Pharmaceuticals, Inc., priority 2014, dated 2021).

Broadly, the IC50 is the midpoint of a concentration-inhibition curve.

One data set has as its target T1, Thrombin (Homo sapiens, UniProt P00734).
T1 construct: Thrombin; 0.2 μM in 50% glycerol (7.34 μg/mL)
Description: Dose response assay for protease inhibitors: thrombin (FXIa fold selectivity). In kind it is biochemical. Conditions: fold selectivity for FXIa over thrombin.

The nature of data set [1]: β-Lactam stability in rat plasma. In kind it is in vitro ADME. The conditions noted are these: normal rat plasma, room temperature; read-out: Rat Plasma Stability (T1/2; min). The procedure, abridged: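 Compounds incubated in normal rat plasma at room temperature, sampled into acetonitrile from 2 to 480 min. Supernatants analysed by HPLC-MS on C18, extracted ion chromatograms of parent and parent+18 (H2O adduct) integrated; T½ = ln(2)/k from single-phase exponential decay fit.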

Another data set has as its system Trypsin. Description: Dose response assay for protease inhibitors: trypsin (FXIa fold selectivity). In kind it is biochemical. The conditions noted are these: fold selectivity for FXIa over trypsin.
In another data set the target is T2, Factor Xa (Homo sapiens, UniProt P00742).
T2 construct: Factor Xa; 0.2 μM in 50% glycerol (9.2 μg/mL)
Description: Dose response assay for protease inhibitors: Factor Xa (FXIa fold selectivity). In kind it is biochemical. Conditions: fold selectivity for FXIa over Factor Xa.

In another data set the target is T3, human Factor XIa (Homo sapiens, UniProt P03951).
T3 construct: Enzyme: Factor XIa; 0.25 μM in 50% glycerol (20 μg/mL)
Description: Factor XIa enzyme inhibition assay (IC50, purified enzyme). The conditions noted are these: purified enzyme 0.25 nM, substrate 50 μM; read-out: Potency hFXIa IC50. Format: biochemical. The procedure, abridged:
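Fluorogenic Glp-Pro-Arg-AMC cleavage, 50 μM substrate, 0.25 nM enzyme, in 20 mM Hepes pH 7.4, 150 mM NaCl, 0.02% Tween 20. Serial two-fold compound dilutions from starting concentrations of 20, 2 and 0.2 μM. Read every minute for 30 min at 30° C; IC50 from a four-parameter fit of dose-response.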

T3 sequence (P03951 388-625 limits assumed): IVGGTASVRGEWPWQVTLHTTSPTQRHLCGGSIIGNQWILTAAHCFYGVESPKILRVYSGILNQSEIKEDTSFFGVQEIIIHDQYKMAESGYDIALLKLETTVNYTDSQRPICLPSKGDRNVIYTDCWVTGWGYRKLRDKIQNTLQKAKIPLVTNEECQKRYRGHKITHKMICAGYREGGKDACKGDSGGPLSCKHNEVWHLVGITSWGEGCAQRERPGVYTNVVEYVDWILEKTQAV
T3 sequence (P03951 19-387 partner limits assumed): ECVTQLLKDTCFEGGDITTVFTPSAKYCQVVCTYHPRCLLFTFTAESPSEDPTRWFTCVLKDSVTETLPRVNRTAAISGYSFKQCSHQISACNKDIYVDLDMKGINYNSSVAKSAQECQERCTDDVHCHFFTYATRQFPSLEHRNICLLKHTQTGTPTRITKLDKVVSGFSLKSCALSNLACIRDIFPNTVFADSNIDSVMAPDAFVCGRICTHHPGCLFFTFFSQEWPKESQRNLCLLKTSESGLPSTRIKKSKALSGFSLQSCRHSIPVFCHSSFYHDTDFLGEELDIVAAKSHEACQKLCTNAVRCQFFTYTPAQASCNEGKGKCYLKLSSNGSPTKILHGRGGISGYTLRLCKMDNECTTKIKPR
T2 sequence (P00742 235-488 limits assumed): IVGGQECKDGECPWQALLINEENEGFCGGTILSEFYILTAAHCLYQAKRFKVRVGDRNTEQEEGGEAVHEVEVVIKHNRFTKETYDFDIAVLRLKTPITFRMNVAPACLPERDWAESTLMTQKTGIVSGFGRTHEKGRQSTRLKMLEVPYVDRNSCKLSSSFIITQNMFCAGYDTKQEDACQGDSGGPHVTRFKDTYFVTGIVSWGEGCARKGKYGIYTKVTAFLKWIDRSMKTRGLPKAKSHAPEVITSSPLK
T2 sequence (P00742 41-179 partner limits assumed): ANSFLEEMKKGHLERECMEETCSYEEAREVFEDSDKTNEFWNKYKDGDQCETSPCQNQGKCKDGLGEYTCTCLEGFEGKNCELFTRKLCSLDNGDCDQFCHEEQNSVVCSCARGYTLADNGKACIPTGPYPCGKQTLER

As to `C[C@@H](NC(=O)N1C(=O)[C@H](Cc2ccnc(N)c2)[C@H]1C(=O)O)C1CCCCCCC1` [Example 104], the “FXIa Fold Selectivity Thrombin” value on Thrombin is “I (“I” indicates >1000)”. Moreover, in data set [1], the half-life was > 1.67 h. Further, the “FXIa Fold Selectivity Trypsin” value in the data set on Trypsin was “I (“I” indicates >1000)”. On Factor Xa, the “FXIa Fold Selectivity FXa” value is on record as “I (“I” indicates >1000)”. Further, at human Factor XIa, the IC50 is < 10 nM.
For `O=C(O)[C@@H]1[C@@H](Cc2ccncc2)C(=O)N1C(=O)NC(c1ccccc1)c1ccccc1` [Example 123], the “FXIa Fold Selectivity Thrombin” value at Thrombin is given as “G (“G” indicates 1-500)”. The half-life in data set [1] is > 1.67 h. Moreover, the “FXIa Fold Selectivity Trypsin” value in the data set with Trypsin was “G (“G” indicates 1-500)”. Also, the “FXIa Fold Selectivity FXa” value on Factor Xa is given as “G (“G” indicates 1-500)”. Besides, the IC50 on human Factor XIa lay within 100 to 1000 nM.
Take `C[C@H](NC(=O)N1C(=O)[C@H](Cc2ccnc(N)c2)[C@H]1C(=O)O)c1ccc2c(c1)OC(F)(F)O2` [Example 130]: at Thrombin, the “FXIa Fold Selectivity Thrombin” value is given as “G (“G” indicates 1-500)”. Also, the half-life in data set [1] was > 1.67 h. Further, in the data set with Trypsin, the “FXIa Fold Selectivity Trypsin” value is listed as “G (“G” indicates 1-500)”. The “FXIa Fold Selectivity FXa” value on Factor Xa is on record as “G (“G” indicates 1-500)”. The IC50 on human Factor XIa is 100 to 1000 nM.
`CCOC(=O)[C@@H]1C(Cc2ccnc(Cl)c2)C(=O)N1C(=O)N[C@H](C)c1ccc2c(c1)OC(F)(F)O2` (stereo partly drawn) [Example 132]: the “FXIa Fold Selectivity Thrombin” value on Thrombin is given as “G (“G” indicates 1-500)”. Moreover, the half-life in data set [1] is < 1.67 h. Also, the “FXIa Fold Selectivity Trypsin” value in the data set on Trypsin is “G (“G” indicates 1-500)”. The “FXIa Fold Selectivity FXa” value at Factor Xa is on record as “G (“G” indicates 1-500)”. Moreover, the IC50 on human Factor XIa was 100 to 1000 nM.
As for `O=C(O)[C@@H]1[C@@H](Cc2ccncc2)C(=O)N1C(=O)N[C@@H](C1CCCCC1)C(F)(F)F` [Example 135], the “FXIa Fold Selectivity Thrombin” value at Thrombin is “G (“G” indicates 1-500)”. In addition, the half-life in data set [1] was > 1.67 h. Further, the “FXIa Fold Selectivity Trypsin” value in the data set on Trypsin was “G (“G” indicates 1-500)”. Besides, the “FXIa Fold Selectivity FXa” value at Factor Xa was “G (“G” indicates 1-500)”. The IC50 on human Factor XIa was in the range of 100 to 1000 nM.
Take `CCOC(=O)[C@@H]1[C@@H](Cc2ccnc(NC(=O)OCOC(=O)C(C)C)c2)C(=O)N1C(=O)N[C@H](C)C1CCCCC1` [Example 137]: on Thrombin, the “FXIa Fold Selectivity Thrombin” value is recorded as “I (“I” indicates >1000)”. For the same molecule, the half-life in data set [1] was < 1.67 h. Also, in the data set on Trypsin, the “FXIa Fold Selectivity Trypsin” value is “I (“I” indicates >1000)”. Besides, the “FXIa Fold Selectivity FXa” value on Factor Xa is recorded as “H (“H” indicates 500-1000)”. Also, the 50% inhibitory concentration (IC50) on human Factor XIa lay within 10 to 100 nM.
Regarding `CCOC(=O)[C@@H]1[C@@H](Cc2ccnc(NC(=O)OCOC(=O)C(C)C)c2)C(=O)N1C(=O)N[C@@H](C1CCCCC1)C(F)(F)F` [Example 140], on Thrombin, the “FXIa Fold Selectivity Thrombin” value was “I (“I” indicates >1000)”. Also, the half-life in data set [1] is < 1.67 h. Also, the “FXIa Fold Selectivity Trypsin” value in the data set with Trypsin is “G (“G” indicates 1-500)”. For the same molecule, the “FXIa Fold Selectivity FXa” value on Factor Xa is “I (“I” indicates >1000)”. The IC50 at human Factor XIa is 10 to 100 nM.
Take `CCOC(=O)[C@@H]1[C@@H](Cc2ccnc(NC(=O)[C@H](C)N)c2)C(=O)N1C(=O)N[C@H](C)c1ccc2c(c1)OC(F)(F)O2` [Example 148]: the “FXIa Fold Selectivity Thrombin” value at Thrombin is given as “G (“G” indicates 1-500)”. In data set [1], the half-life was < 1.67 h. The “FXIa Fold Selectivity Trypsin” value with Trypsin is given as “G (“G” indicates 1-500)”. Also, the “FXIa Fold Selectivity FXa” value on Factor Xa is “G (“G” indicates 1-500)”. Besides, the IC50 on human Factor XIa was 100 to 1000 nM.
For `O=C(O)[C@@H]1[C@@H](CCc2cccc(Cl)c2F)C(=O)N1C(=O)N[C@@H](C1CCCCC1)C(F)(F)F` [Example 156], the “FXIa Fold Selectivity Thrombin” value on Thrombin is listed as “I (“I” indicates >1000)”. Besides, the half-life in data set [1] was > 1.67 h. Further, the “FXIa Fold Selectivity Trypsin” value in the data set on Trypsin is recorded as “I (“I” indicates >1000)”. Moreover, at Factor Xa, the “FXIa Fold Selectivity FXa” value is listed as “H (“H” indicates 500-1000)”. Moreover, the IC50 at human Factor XIa is 100 to 1000 nM.
